We go through five molecules from ChEMBL document CHEMBL1201862, “PubChem BioAssay data set” (2004).

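Step 1: Grow cells in 96-well plates. Step 2: Expose to compound for 48 hours at 5 concentrations. Step 3: Interpolate endpoints linearly; if unreached, use highest concentration. GI50 is the concentration that inhibits growth by half.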 Active and inactive are the calls of the source. Rule as the data show it: active = GI50 up to about 1.1 µM and inactive = higher. Starred links: 1 amine or outer side, 2 acyl side, 3 side chain; linkers in the order of their positions; H or OH if unused. Non-standard residues stand in square brackets, D forms with d. Residues, ends and D or L forms follow the SMILES beside them. *: point of attachment. X47 = CCC(=O)CC1CC(C)CC(C(=O)[*:2])N1[*:1]; X46 = CCCCCCCCC(C)C(=O)*; Aib = CC(C)(N)C(=O)O; X48 = CC(CN(C)CCO)N*

Test systems include EKVX; OVCAR-4; UACC-257; HOP-62; SK-MEL-2; RXF 393; HCC 2998; SK-MEL-28; SNB-75; SF-268; TK-10; K562; NCI-H23; HOP-92; NCI-H522; CCRF-CEM; SN12C; SW-620; OVCAR-8; SK-OV-3.
Holding throughout (assay): NCI-60 cell line screen, 48 h

Regarding `N#C/C(=C\c1cccc(O)c1)C(N)=O`, the GI50 is > 100 µM (inactive) in the experiment with EKVX; > 100 µM (inactive) with OVCAR-4; > 100 µM (inactive) in the experiment on UACC-257; > 100 µM (inactive) in the experiment with HOP-62; > 100 µM (inactive) with SK-MEL-2; 61.4 µM (inactive) in the experiment with RXF 393. Besides, the GI50 is > 100 µM (inactive) in the experiment with HCC 2998; > 100 µM (inactive) in the experiment on SK-MEL-28; 22.3 µM (inactive) with SNB-75; > 100 µM (inactive) in the experiment on SF-268; > 100 µM (inactive) in the experiment on TK-10; > 100 µM (inactive) with K562. For the same molecule, the GI50 in the experiment on NCI-H23 is > 100 µM (inactive); with HOP-92, > 100 µM (inactive); in the experiment with NCI-H522, > 100 µM (inactive); in the experiment on CCRF-CEM, > 100000 nM (inactive); in the experiment on SN12C, > 100 µM (inactive); in the experiment on SW-620, > 100 µM (inactive). The GI50 in the experiment with OVCAR-8 and in the experiment on SK-OV-3 was > 100 µM (inactive) in each case.

On to `CCCCCCCCC(C)C(=O)N1CCCC1C(=O)N1C(CC(=O)CC)CC(C)CC1C(=O)NC(C)C(=O)NC(C)(C)C(=O)NC(C)(C)C(=O)NC(C(=O)NC(C)C(=O)NC(C)(C)C(=O)NC(C)(C)C(=O)NC(C)CN(C)CCO)C(C)CC` (stereo not given) (X46-P[X47]A[Aib][Aib]IA[Aib][Aib]-X48; configuration not given here), for which the GI50 in the experiment on EKVX was < 0.01 µM (active); in the experiment on OVCAR-4, < 0.0118 µM (active); in the experiment with UACC-257 it was < 0.01 µM (active); in the experiment with HOP-62, 0.116 µM (active); in the experiment with SK-MEL-2, 0.369 µM (active); in the experiment on RXF 393, 1.85 µM (inactive). Moreover, the GI50 is 0.0385 µM (active) with HCC 2998; 2.89 µM (inactive) in the experiment with SK-MEL-28; 0.382 µM (active) in the experiment with SNB-75; 0.581 µM (active) with SF-268; 0.09 µM (active) in the experiment on TK-10; < 0.01 µM (active) in the experiment with K562. For the same molecule, the GI50 was < 0.01 µM (active) in the experiment with NCI-H23; < 0.01 µM (active) in the experiment on HOP-92; < 0.01 µM (active) in the experiment with NCI-H522; < 18.3 nM (active) in the experiment with CCRF-CEM; 0.115 µM (active) with SN12C; 0.0794 µM (active) in the experiment on SW-620. Moreover, the GI50 with OVCAR-8 was < 0.01 µM (active); in the experiment with SK-OV-3 it was 1.19 µM (inactive).

Regarding `C=C1c2nc3ccccc3n2C=C(c2ccc(OC)cc2)N1c1ccccc1`, the GI50 was 19 µM (inactive) in the experiment on EKVX; 17.9 µM (inactive) with OVCAR-4; 13.3 µM (inactive) in the experiment on UACC-257; 36.8 µM (inactive) in the experiment with HOP-62; 5.28 µM (inactive) in the experiment on SK-MEL-2; 6.71 µM (inactive) in the experiment with RXF 393. For the same molecule, the GI50 was 3.75 µM (inactive) in the experiment on HCC 2998; 29.6 µM (inactive) with SK-MEL-28; 4.99 µM (inactive) with SNB-75; 50 µM (inactive) in the experiment on SF-268; 32.7 µM (inactive) in the experiment with TK-10; 2.62 µM (inactive) in the experiment with K562. Also, the GI50 in the experiment with NCI-H23 was 11.7 µM (inactive); in the experiment on HOP-92, 30.2 µM (inactive); in the experiment with NCI-H522 it was 2.21 µM (inactive); with CCRF-CEM, 3660 nM (inactive); in the experiment with SN12C, 24 µM (inactive); with SW-620, 3.66 µM (inactive). Besides, the GI50 with OVCAR-8 is 8.61 µM (inactive); in the experiment on SK-OV-3, 47.8 µM (inactive).

As to `O=C1/C(=C\c2cccc(Oc3ccccc3)c2)SC(c2ccccc2)N1c1cc(Cl)ccc1Cl` (stereo not given), the GI50 in the experiment with EKVX is 38.1 µM (inactive); in the experiment with OVCAR-4, 51.2 µM (inactive); in the experiment with UACC-257, 32.7 µM (inactive); in the experiment on HOP-62, 56.5 µM (inactive); with SK-MEL-2, 43.5 µM (inactive); in the experiment with RXF 393, 22.8 µM (inactive). Besides, the GI50 in the experiment with HCC 2998 was 37.2 µM (inactive); with SK-MEL-28, 37.1 µM (inactive); in the experiment with SNB-75 it was > 100 µM (inactive); with SF-268 it was 22.2 µM (inactive); in the experiment on TK-10, 47 µM (inactive); with K562, 21.2 µM (inactive). Besides, the GI50 with NCI-H23 was 33.4 µM (inactive); with HOP-92, 17.7 µM (inactive); in the experiment on NCI-H522 it was 21 µM (inactive); in the experiment on CCRF-CEM, 35.6 nM (active); with SN12C, 18.7 µM (inactive); in the experiment on SW-620, 19 µM (inactive). Further, the GI50 is 21.3 µM (inactive) in the experiment on OVCAR-8 and > 100 µM (inactive) with SK-OV-3.

With `O=[N+]([O-])c1ccc(C(Cl)C(Cl)c2ccc(C(Cl)C(Cl)c3ccc([N+](=O)[O-])cc3[N+](=O)[O-])cc2)c([N+](=O)[O-])c1` (stereo not given), the GI50 was 2.13 µM (inactive) in the experiment with EKVX; 1.52 µM (inactive) with OVCAR-4; 1.72 µM (inactive) with UACC-257; 3.01 µM (inactive) with HOP-62; 1.42 µM (inactive) in the experiment with SK-MEL-2; 0.964 µM (active) with RXF 393. In addition, the GI50 in the experiment on HCC 2998 was 1.96 µM (inactive); with SK-MEL-28, 2.3 µM (inactive); in the experiment on SNB-75 it was 8.02 µM (inactive); in the experiment on SF-268, 1.89 µM (inactive); with TK-10 it was 5.79 µM (inactive); with K562, 0.187 µM (active). The GI50 was 1.52 µM (inactive) in the experiment on NCI-H23; 1.28 µM (inactive) in the experiment on HOP-92; 1.14 µM (inactive) in the experiment with NCI-H522; 232 nM (active) with CCRF-CEM; 1.95 µM (inactive) in the experiment with SN12C; 0.75 µM (active) in the experiment with SW-620. In addition, the GI50 is 0.912 µM (active) in the experiment on OVCAR-8 and 22.8 µM (inactive) in the experiment on SK-OV-3.
